Test results: PubChem BioAssay (NCI)
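Five compound concentrations were applied to cells in 96-well plates for 48 hours; endpoints were derived by simple linear interpolation of the resulting dose-response curve. At the GI50, growth is halved. TGI is the concentration that stops growth completely.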

Key:
Assay in all cases: NCI-60 cell line screen, 48 h
A498 renal = tested on: A498 renal
A549 NSCLC = tested on: A549 NSCLC
M14 melanoma = tested on: M14 melanoma
MDA-MB-435 = tested on: MDA-MB-435
NCI-H23 lung = tested on: NCI-H23 lung
NCI/ADR-RES ovarian = tested on: NCI/ADR-RES ovarian
OVCAR-3 ovarian = tested on: OVCAR-3 ovarian
SK-MEL-28 melanoma = tested on: SK-MEL-28 melanoma
SW-620 colon = tested on: SW-620 colon
UACC-62 melanoma = tested on: UACC-62 melanoma

| SMILES | TGI (A498 renal) [µM] | TGI (A549 NSCLC) [µM] | TGI (M14 melanoma) [µM] | TGI (MDA-MB-435) [µM] | TGI (NCI-H23 lung) [µM] | TGI (NCI/ADR-RES ovarian) [µM] | TGI (OVCAR-3 ovarian) [µM] | TGI (SK-MEL-28 melanoma) [µM] | TGI (SW-620 colon) [µM] | TGI (UACC-62 melanoma) [µM] | GI50 (A498 renal) [µM] | GI50 (A549 NSCLC) [µM] | GI50 (MDA-MB-435) [µM] | GI50 (NCI-H23 lung) [µM] | GI50 (NCI/ADR-RES ovarian) [µM] | GI50 (OVCAR-3 ovarian) [µM] | GI50 (SK-MEL-28 melanoma) [µM] | GI50 (SW-620 colon) [µM] | GI50 (UACC-62 melanoma) [µM] |
| --- | --- | --- | --- | --- | --- | --- | --- | --- | --- | --- | --- | --- | --- | --- | --- | --- | --- | --- | --- |
| c1nc(N2CC2)c2cnn(C3CCCCO3)c2n1 (centres undefined) | > 100 | > 100 | > 100 | > 100 | > 100 | > 100 | > 100 | > 100 | > 100 | > 100 |  |  |  |  |  |  |  |  |  |
| OCCCNc1nc(=S)[nH]c2[nH]ncc12 | 48.2 | > 100 |  | > 100 | > 100 | > 100 | > 100 | > 100 | > 100 | > 100 | 13.3 | 44.7 | 45.5 | 51.7 | > 100 | 31.4 | 57.1 | 44.3 | 30 |
| CCOC(=O)NC(=O)c1cn(CCNCCO)c(=O)[nH]c1=O |  | > 100 | > 100 |  | > 100 |  | > 100 |  | > 100 | > 100 |  |  |  |  |  |  |  |  |  |
| CCN(CCO)C(=O)C1(c2ccccc2)CCCCC1 | > 10 | > 10 | > 10 | > 10 | > 10 | > 10 | > 10 | > 10 | > 10 | > 10 |  |  |  |  |  |  |  |  |  |
| COc1ccc(CC2CCc3nc(N)nc(N)c3C2)cc1OC (centres undefined) | > 100 | > 53.1 | > 39.5 | > 100 | > 50 | 16.3 | > 100 | > 100 | > 100 | > 36.9 |  |  |  |  |  |  |  |  |  |
